According to US7138361B2, “Herbicidal heterocycles” (E. I. du Pont de Nemours and Company, priority 2000, dated 2006):

Experiments:
Type in all cases: in vivo
Sunflower = assay: Test C preemergence; details: scale 0 to 100, 0 no effect, 100 complete control
Nightshade = assay: Test C preemergence; details: visual evaluation after 12 to 14 days
[1] = system: velvetleaf (Abutilon theophrasti); assay: Test B postemergence; details: 13 to 15 days
How it was run: (§1)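 Post-treatment, species sat 13–15 days under greenhouse conditions before visual scoring against controls, 0 (no effect) through 100 (complete control). Application preemergence to sown seeds or postemergence at 1- to 4-leaf stage, using a non-phytotoxic solvent/surfactant formulation.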

corn (Zea mays) [2] = assay: Test B postemergence; details: 13 to 15 days
How it was run: as §1

[3] = system: lambsquarters (Chenopodium album); assay: Test B postemergence; details: 13 to 15 days
How it was run: as §1

[4] = system: cocklebur (Xanthium strumarium); assay: Test B postemergence; details: 13 to 15 days
How it was run: as §1

[5] = system: crabgrass (Digitaria sanguinalis); assay: Test B postemergence; details: 13 to 15 days
How it was run: as §1

[6] = system: wheat (Triticum aestivum); assay: Test B postemergence; details: 13 to 15 days
How it was run: as §1

[7] = system: blackgrass (Alopecurus myosuroides); assay: Test B postemergence; details: 13 to 15 days
How it was run: as §1

wild oat (Avena fatua) = assay: Test B postemergence; details: 13 to 15 days
How it was run: as §1

[8] = system: morning glory (Ipomoea hederacea); assay: Test B postemergence; details: 13 to 15 days
How it was run: as §1

[9] = system: Surinam grass (Brachiaria decumbens); assay: Test B postemergence; details: 13 to 15 days
How it was run: as §1

[10] = system: barnyardgrass (Echinochloa crus-galli); assay: Test B postemergence; details: 13 to 15 days
How it was run: as §1

[11] = system: pigweed (Amaranthus retroflexus); assay: Test B postemergence; details: 13 to 15 days
How it was run: as §1

[12] = system: giant foxtail (Setaria faberii); assay: Test B postemergence; details: 13 to 15 days
How it was run: as §1

[13] = system: velvetleaf (Abutilon theophrasti); assay: Test B preemergence
How it was run: as §1

corn (Zea mays) [14] = assay: Test B preemergence
How it was run: as §1

[15] = system: lambsquarters (Chenopodium album); assay: Test B preemergence
How it was run: as §1

[16] = system: cocklebur (Xanthium strumarium); assay: Test B preemergence
How it was run: as §1

[17] = system: crabgrass (Digitaria sanguinalis); assay: Test B preemergence
How it was run: as §1

rice (Oryza saliva) = assay: Test B preemergence
How it was run: as §1

[18] = system: morning glory (Ipomoea hederacea); assay: Test B preemergence
How it was run: as §1

[19] = system: Surinam grass (Brachiaria decumbens); assay: Test B preemergence
How it was run: as §1

[20] = system: barnyardgrass (Echinochloa crus-galli); assay: Test B preemergence
How it was run: as §1

[21] = system: pigweed (Amaranthus retroflexus); assay: Test B preemergence
How it was run: as §1

[22] = system: giant foxtail (Setaria faberii); assay: Test B preemergence
How it was run: as §1

[23] = Rate 125 g/ha, scale 0 (no effect) to 100 (complete control)
[24] = Rate 500 g/ha, scale 0 to 100, 0 is no effect, 100 is complete control
[25] = Preemergence, Rate 500 g/ha, scale 0 to 100, 0 no effect, 100 complete control
[26] = preemergence, Rate 125 g/ha, scale of 0 to 100 where 0 is no effect and 100 is complete control, 13 to 15 days
[27] = preemergence, Rate 125 g/ha, scale 0 to 100, 0 no effect, 100 complete control

Q: Which “Plant response rating, Sunflower” value (Sunflower; Rate 250 g/ha) does the source give for CC(C)Oc1cccc(N2CCC(n3ccc(C(C)C)n3)C2=O)c1 (stereo not drawn) [Compound 82] here?
A: 70

Q: And the “Plant response rating (0 to 100), Nightshade” value (Nightshade; Rate 500 g/ha)?
A: 100

Q: What about the “Plant response rating, Velvetleaf” value [1, 23] of the same molecule?
A: 0

Q: What about the “Plant response rating, Velvetleaf” value [1, 24] of the same molecule?
A: 0

Q: What about the “Plant response rating, Corn” value (corn (Zea mays) [2]; [23]) of the same molecule?
A: 0

Q: What about the “Plant response rating, Corn” value (corn (Zea mays) [2]; [24]) of the same molecule?
A: 0

Q: And the “Plant response rating, Lambsquarters” value [3, 23]?
A: 20

Q: And the “Plant response rating, Lambsquarters” value [3, 24]?
A: 70

Q: What about the “Plant response rating, Cocklebur” value [4, 23] of the same molecule?
A: 0

Q: What about the “Plant response rating, Cocklebur” value [4, 24] of the same molecule?
A: 20

Q: What about the “Plant response rating, Crabgrass” value [5, 23] of the same molecule?
A: 0

Q: What about the “Plant response rating, Crabgrass” value [5, 24] of the same molecule?
A: 10

Q: And the “Plant response rating, Wheat” value [6, 23]?
A: 0

Q: What about the “Plant response rating, Wheat” value [6, 24] of the same molecule?
A: 0

Q: What about the “Plant response rating, Blackgrass” value [7, 23] of the same molecule?
A: 0

Q: And the “Plant response rating, Blackgrass” value [7, 24]?
A: 0

Q: And the “Plant response rating, Wild Oat” value (wild oat (Avena fatua); [23])?
A: 0

Q: What about the “Plant response rating, Wild Oat” value (wild oat (Avena fatua); [24]) of the same molecule?
A: 0

Q: What about the “Plant response rating, Morningglory” value [8, 23] of the same molecule?
A: 0

Q: And the “Plant response rating, Morningglory” value [8, 24]?
A: 10

Q: What about the “Plant response rating, Surinam grass” value [9, 23] of the same molecule?
A: 0

Q: What about the “Plant response rating, Surinam grass” value [9, 24] of the same molecule?
A: 0

Q: What about the “Plant response rating, Barnyardgrass” value [10, 23] of the same molecule?
A: 0

Q: And the “Plant response rating, Barnyardgrass” value [10, 24]?
A: 0

Q: And the “Plant response rating, Pigweed” value [11, 23]?
A: 0

Q: What about the “Plant response rating, Pigweed” value [11, 24] of the same molecule?
A: 10

Q: What about the “Plant response rating, Foxtail, Giant” value [12, 23] of the same molecule?
A: 0

Q: And the “Plant response rating, Foxtail, Giant” value [12, 24]?
A: 0

Q: And the “Plant response rating, Velvetleaf” value [13, 25]?
A: 0

Q: And the “Plant response rating, Velvetleaf” value [13, 26]?
A: 0

Q: What about the “Plant response rating, Corn” value (corn (Zea mays) [14]; [25]) of the same molecule?
A: 20

Q: And the “Plant response rating, Corn” value (corn (Zea mays) [14]; [26])?
A: 0

Q: What about the “Plant response rating, Lambsquarters” value [15, 25] of the same molecule?
A: 100

Q: What about the “Plant response rating, Lambsquarters” value [15, 26] of the same molecule?
A: 100

Q: What about the “Plant response rating, Cocklebur” value [16, 25] of the same molecule?
A: 0

Q: What about the “Plant response rating, Cocklebur” value [16, 26] of the same molecule?
A: 0

Q: And the “Plant response rating, Crabgrass” value [17, 25]?
A: 100

Q: What about the “Plant response rating, Crabgrass” value [17, 26] of the same molecule?
A: 100

Q: What about the “Plant response rating, Rice” value (rice (Oryza saliva); [25]) of the same molecule?
A: 100

Q: And the “Plant response rating, Rice” value (rice (Oryza saliva); [26])?
A: 70

Q: What about the “Plant response rating, Morningglory” value [18, 25] of the same molecule?
A: 0

Q: What about the “Plant response rating, Morningglory” value [18, 26] of the same molecule?
A: 0

Q: What about the “Plant response rating, Surinam grass” value [19, 25] of the same molecule?
A: 100

Q: What about the “Plant response rating, Surinam grass” value [19, 26] of the same molecule?
A: 90

Q: What about the “Plant response rating, Barnyardgrass” value [20, 25] of the same molecule?
A: 100

Q: And the “Plant response rating, Barnyardgrass” value [20, 26]?
A: 100

Q: What about the “Plant response rating, Pigweed” value [21, 25] of the same molecule?
A: 100

Q: And the “Plant response rating, Pigweed” value [21, 26]?
A: 100

Q: And the “Plant response rating, Foxtail, Giant” value [22, 25]?
A: 100

Q: And the “Plant response rating, Foxtail, Giant” value [22, 26]?
A: 100

Q: What does the source list for O=C1C(n2ccc(C3CC3)n2)OCN1c1cccc(C(F)(F)F)c1 (stereo not drawn) [Compound 28]?
A: Plant response rating, Sunflower (Sunflower; Rate 125 g/ha): 40; Plant response rating (0 to 100), Nightshade (Nightshade; Rate 250 g/ha): 90; Plant response rating, Velvetleaf [1, 23]: 0; Plant response rating, Velvetleaf [1, 24]: 0; Plant response rating, Corn (corn (Zea mays) [2]; [23]): 0; Plant response rating, Corn (corn (Zea mays) [2]; [24]): 0; Plant response rating, Lambsquarters [3, 23]: 60; Plant response rating, Lambsquarters [3, 24]: 70; Plant response rating, Cocklebur [4, 23]: 0; Plant response rating, Cocklebur [4, 24]: 0; Plant response rating, Crabgrass [5, 23]: 20; Plant response rating, Crabgrass [5, 24]: 30; Plant response rating, Wheat [6, 23]: 0; Plant response rating, Wheat [6, 24]: 0; Plant response rating, Blackgrass [7, 23]: 0; Plant response rating, Blackgrass [7, 24]: 0; Plant response rating, Wild Oat (wild oat (Avena fatua); [23]): 0; Plant response rating, Wild Oat (wild oat (Avena fatua); [24]): 0; Plant response rating, Morningglory [8, 23]: 0; Plant response rating, Morningglory [8, 24]: 0; Plant response rating, Surinam grass [9, 23]: 0; Plant response rating, Surinam grass [9, 24]: 0; Plant response rating, Barnyardgrass [10, 23]: 0; Plant response rating, Barnyardgrass [10, 24]: 60; Plant response rating, Pigweed [11, 23]: 30; Plant response rating, Pigweed [11, 24]: 30; Plant response rating, Foxtail, Giant [12, 23]: 0; Plant response rating, Foxtail, Giant [12, 24]: 30; Plant response rating, Velvetleaf [13, 25]: 0; Plant response rating, Corn (corn (Zea mays) [14]; [25]): 0; Plant response rating, Corn (corn (Zea mays) [14]; [27]): 0; Plant response rating, Lambsquarters [15, 25]: 100; Plant response rating, Lambsquarters [15, 27]: 100; Plant response rating, Cocklebur [16, 25]: 100; Plant response rating, Cocklebur [16, 27]: 0; Plant response rating, Crabgrass [17, 25]: 100; Plant response rating, Crabgrass [17, 27]: 20; Plant response rating, Rice (rice (Oryza saliva); [25]): 40; Plant response rating, Morningglory [18, 25]: 0; Plant response rating, Surinam grass [19, 25]: 70; Plant response rating, Surinam grass [19, 27]: 0; Plant response rating, Barnyardgrass [20, 25]: 100; Plant response rating, Barnyardgrass [20, 27]: 50; Plant response rating, Pigweed [21, 25]: 100; Plant response rating, Foxtail, Giant [22, 25]: 100; Plant response rating, Foxtail, Giant [22, 27]: 20
